According to patent US20250059267A1, “COMBINATION THERAPY FOR TREATMENT OF TUMORS COMPRISING CANCER-ASSOCIATED FIBROBLASTS” (PHENOMIC AI, priority 2021, published 2025):

Experiments:
Type in all cases: cell-based, human
[1] = system: fibroblasts grown in the presence of either HCT 116 cells or HT-29 cells; assay: TGF-β pathway inhibitors in fibroblast-cancer cell co-cultures (CAF activation); conditions: for block of CAF activation in coculture (FIG. 2B): BJ fibroblasts with HT-29 cells, TGF-β 1 ng/ml; for activity on CAF phenotypes in co-culture: identical doses to those used in the previous test
Protocol: (§1) FIG. 2 TGF-β inhibitors perform poorly in co-culture compared to mono-culture. (A) Normal BJ fibroblasts were cultured in either minimal media or alongside HT-29 CRC cancer cells. 6-different TGF-β inhibitors were added alongside TGF-β [1 ng/ml]ligand. […] (B) This is most apparent comparing the effects of three TGF-β inhibitors with varying selectivity.
(§2) In brief, monocultures of BJ or CCD18-Co fibroblasts were stimulated with TGF-β for 48 hours in the presence of serial dilutions of each TGF-β inhibitor and fibroblast activation was assessed by immunofluorescence using αSMA and CD248. The probability of fibroblast activation was assessed by a machine learning model, Multiple Instance Learning (MIL) trained on unstimulated fibroblasts (no drug, no TGF-β) as a negative control, and TGF-β stimulated fibroblasts (with vehicle control) as positive control. For co-culture comparisons, the same fibroblasts were grown in the presence of either HCT 116 cells or HT-29 cells and treated with the same serial dilutions of small molecule TGF-β. For these co-cultures, the addition of exogenous TGF-β is not required as the cancer cells secrete sufficient TGF-β for maximal fibroblast activation. […] This observation was confirmed by CellProfiler analysis where individual fibroblasts were segmented and αSMA and stress-fiber intensity was quantified (FIG. 2A).
We took an mAb inhibitor of TGFBR2, LY3022859, and assessed the performance of this inhibitor in co-culture alongside SIS3 and […], (FIG. 2 B). […] In contrast, both LY364947 and SIS3 were active at identical doses to those used in the previous test. Again, exogenous TGF-β was dispensable for this effect.

[2] = system: fibroblasts (BJ, CCD18-Co); assay: Activin A, Activin B and TGF-β dose response for CAF induction in unstimulated fibroblasts; conditions: for phenotypic changes in fibroblasts (SMAD2/3, phospho-CREB, ASMA, Endosialin): BJ-fibroblasts; for EC50 values (fibroblast induction into a CAF like state, composite machine learning score): depending on condition tested, BJ, CCD18-Co, 1 hr and 48 hr; for ASMA score (intensity and number of ASMA filaments) vs. TGF-β treatment: highest dose, 48 hours; for IC50 values, 1 hr vs. 48 hr timepoints: BJ or CCD18-Co fibroblast mono-cultures in minimal media (N=2)
Protocol: FIG. 3 Activin and TGF-β both induce a CAF phenotype in fibroblast cell-lines. […] B) Quantification of ASMA levels and plate coverage further reinforce these changes downstream of addition of both Activin and TGF-β. C) TGF-β and Activin A were added over a range of doses to BJ or CCD18-Co colon fibroblasts grown as mono-cultures in minimal media (N=2). Cells were stained for Actin, Endosialin/CD248, DAPI/Nuclei, and αSMA. Machine Learning (Multiple Instance Learning) models were trained on the highest and lowest doses to generate dose-response curves.
To test whether Activin signaling could induce CAF activation similarly to TGF-β we added serial dilutions (3-fold) of recombinant Activin A ([…] max concentration) and Activin B ([…] max concentration) to unstimulated fibroblasts (BJ, CCD18-Co) to generate dose response curves for Activin A and B. A serial 3-fold dilution of TGF-β was also tested as a positive control ([…] max concentration). A number of high-content markers of CAF activation we used as endpoints. Namely, cells were probed for SMAD2/3 translocation to the nucleus and phospoCREB levels at 1 hr, as a marker of direct ACVR/TGFBR stimulation. ASMA and Endosialin levels were then probed at 48 hrs to quantify CAF induction levels following Activin and TGF-β stimulation. At the highest dose, at 1 hr we saw SMAD 2/3 nuclear translocation alongside phospho-CREB up-regulation, indicating receptor engagement and activity in both Activin and TGF-β treated conditions (FIG. 3A).

[3] = system: BJ or CCD18-Co fibroblasts; assay: TGF-β pathway inhibitors in TGF-β stimulated fibroblast monocultures (αSMA/CD248 immunofluorescence, MIL model); conditions: 48 hours
Protocol: as §1
We then tested the relative potency of a panel of TGF-β pathway inhibitors in monoculture fibroblasts stimulated with TGF-β compared to co-culture with CRC cells that produce their own, similar levels of TGF-β.
as §2, with “control.” for “control. For co-culture comparisons, the same fibroblasts were grown in the presence of either HCT 116 cells or HT-29 cells and treated with the same serial dilutions of small molecule TGF-β. For these co-cultures, the addition of exogenous TGF-β is not required as the cancer cells secrete sufficient TGF-β for maximal fibroblast activation.”

[4] = system: CCD-18Co normal colon fibroblasts; assay: Cytokine stimulation of fibroblast monocultures, CAF marker immunofluorescence; conditions: fibroblast monoculture serum-starved 24 hours, stimulated 48 hours, vs untreated fibroblasts
Protocol: A panel of 5 CAF markers were then used to stain the cultures and the expression levels of expression of the markers calculated from individual segmented fibroblasts.
First, we treated normal human fibroblasts with a panel of cytokines to induce activation, and then assessed CAF marker expression by immunofluorescence. Fibroblast monocultures were serum-starved for 24 hours then stimulated with TGF-β, TNF alpha, PDGFbb, acidic FGF or other cytokines for 48 hours. Cells were then fixed, permeabilized and stained with a panel of immunofluorescent CAF markers and imaged by high-content microscopy.

Compound | block of CAF activation in coculture (FIG. 2B) [1] | activity on CAF phenotypes in co-culture [1] | phenotypic changes in fibroblasts (SMAD2/3, phospho-CREB, ASMA, Endosialin) [2] | EC50 values (fibroblast induction into a CAF like state, composite machine learning score) [2] | ASMA score (intensity and number of ASMA filaments) vs. TGF-β treatment [2] | IC50 values, 1 hr vs. 48 hr timepoints [2] | other results
COc1cc2c(cc1OC)CN(C(=O)/C=C/c1c(-c3ccccc3)n(C)c3ncccc13)CC2 [SIS3] | able to block CAF activation | active | – | – | – | – | response in co-culture among the inhibitors tested (rightward shift of IC50) [1]: best response; reduction of αSMA levels in coculture ([1]; % of the control, conditions with >5% cell death excluded): more than 50%
Activin B: recombinant Activin B | – | – | induce similar phenotypic changes | 4 to 9 µg/mL | no difference | – | –
c1ccc(-c2[nH]ncc2-c2ccnc3ccccc23)nc1 [LY364947] | blocks CAF activation at high doses | active | – | – | – | – | –
Cc1cccc(-c2nn3c(c2-c2ccnc4ccc(C(N)=O)cc24)CCC3)n1 [LY2157299] | – | – | – | – | – | – | effectiveness in monoculture (inhibition of αSMA) [3]: effective; inhibition of αSMA in co-culture ([1]; even up to 100 μM): very little inhibition
Activin A: recombinant Activin A | – | – | induce similar phenotypic changes | 10 to 30 µg/mL | no difference | lower at the 48 hr timepoint in CCD18 colon fibroblasts | –
TGF-β: TGF-β ligand added as cytokine stimulus and positive control | – | – | induce similar phenotypic changes | – | – | lower for 1 hr timepoints vs. 48 hr timepoints | expression of alpha-smooth muscle actin (αSMA), podoplanin (PDPN) and CD248 [4]: increased expression
